# Source: ChEMBL document CHEMBL1129099, “Non-peptide fibrinogen receptor antagonists based upon a 4-substituted piperidine scaffold” (Bioorg Med Chem Lett, 1996)
# Key:
# [1] = target: Integrin alpha-IIb/beta-3 (Homo sapiens, UniProt P05106+P08514); experiment: Inhibition of [125I]- Fg binding to fibrinogen receptor of activated human platelets
# [2] = species: Homo sapiens; experiment: Evaluated for human platelet aggregation.; type: functional
# Chain of Integrin alpha-IIb/beta-3 (P05106 27-788 limits assumed): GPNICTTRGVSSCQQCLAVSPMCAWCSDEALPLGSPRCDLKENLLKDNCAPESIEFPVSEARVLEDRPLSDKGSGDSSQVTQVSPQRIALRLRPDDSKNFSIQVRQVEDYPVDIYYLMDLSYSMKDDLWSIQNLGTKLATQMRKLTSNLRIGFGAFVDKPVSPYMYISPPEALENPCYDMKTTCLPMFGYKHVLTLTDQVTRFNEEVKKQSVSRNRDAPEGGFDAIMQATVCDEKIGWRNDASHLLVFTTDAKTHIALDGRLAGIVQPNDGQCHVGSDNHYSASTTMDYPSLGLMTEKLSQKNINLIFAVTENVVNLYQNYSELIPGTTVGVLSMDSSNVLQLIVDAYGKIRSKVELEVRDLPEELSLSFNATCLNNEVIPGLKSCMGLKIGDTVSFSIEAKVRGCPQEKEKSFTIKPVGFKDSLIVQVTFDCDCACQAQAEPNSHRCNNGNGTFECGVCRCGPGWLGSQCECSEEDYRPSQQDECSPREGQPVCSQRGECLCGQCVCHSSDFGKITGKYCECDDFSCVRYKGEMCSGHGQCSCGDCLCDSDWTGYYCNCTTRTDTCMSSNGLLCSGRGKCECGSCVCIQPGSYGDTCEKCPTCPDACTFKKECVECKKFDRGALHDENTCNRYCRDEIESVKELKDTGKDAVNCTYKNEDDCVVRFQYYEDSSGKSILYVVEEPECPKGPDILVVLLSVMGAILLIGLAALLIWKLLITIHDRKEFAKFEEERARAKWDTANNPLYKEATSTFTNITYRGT
# Chain of Integrin alpha-IIb/beta-3 (P08514 32-887 limits assumed): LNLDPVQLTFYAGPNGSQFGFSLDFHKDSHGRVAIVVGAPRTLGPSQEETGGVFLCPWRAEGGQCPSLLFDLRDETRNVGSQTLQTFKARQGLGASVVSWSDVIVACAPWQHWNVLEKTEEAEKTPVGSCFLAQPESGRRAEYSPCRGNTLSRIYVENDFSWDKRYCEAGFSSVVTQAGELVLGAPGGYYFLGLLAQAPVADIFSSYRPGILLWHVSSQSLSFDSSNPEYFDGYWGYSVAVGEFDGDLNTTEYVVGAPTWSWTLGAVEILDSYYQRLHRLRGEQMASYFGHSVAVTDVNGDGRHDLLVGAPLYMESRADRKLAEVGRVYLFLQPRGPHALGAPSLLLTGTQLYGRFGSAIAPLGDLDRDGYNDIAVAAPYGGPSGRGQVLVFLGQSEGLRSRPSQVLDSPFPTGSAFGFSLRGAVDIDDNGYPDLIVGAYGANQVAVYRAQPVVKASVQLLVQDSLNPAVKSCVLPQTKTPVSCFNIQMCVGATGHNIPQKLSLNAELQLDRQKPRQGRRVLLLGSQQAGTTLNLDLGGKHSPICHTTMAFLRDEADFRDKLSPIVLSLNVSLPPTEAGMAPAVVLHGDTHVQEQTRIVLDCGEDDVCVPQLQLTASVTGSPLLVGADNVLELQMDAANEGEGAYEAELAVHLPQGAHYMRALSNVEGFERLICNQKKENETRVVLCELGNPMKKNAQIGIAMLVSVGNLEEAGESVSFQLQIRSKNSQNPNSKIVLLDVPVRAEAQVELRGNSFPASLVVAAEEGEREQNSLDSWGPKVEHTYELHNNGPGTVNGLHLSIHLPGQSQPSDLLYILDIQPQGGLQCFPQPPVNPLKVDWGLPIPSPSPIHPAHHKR
# Chain of Integrin alpha-IIb/beta-3 (P08514 891-1039 limits assumed): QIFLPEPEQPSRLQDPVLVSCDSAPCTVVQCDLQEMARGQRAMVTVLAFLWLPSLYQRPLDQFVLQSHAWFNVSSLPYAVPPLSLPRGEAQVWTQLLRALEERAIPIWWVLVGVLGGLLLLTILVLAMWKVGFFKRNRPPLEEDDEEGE
Structure (SMILES),IC50 [1] [nM],IC50 [2] [nM]
CCCCS(=O)(=O)N[C@H](CCC(=O)O)C(=O)N1CCC(CCCC2CCNCC2)CC1,130,–
CCCCS(=O)(=O)N[C@@H](CCC(=O)O)C(=O)N1CCC(CCCC2CCNCC2)CC1,> 25000,–
CCCCCN[C@@H](CCC(=O)N1CCC(CCCC2CCNCC2)CC1)C(=O)O,8400,–
CCCCC(=O)N[C@@H](CCC(=O)N1CCC(CCCC2CCNCC2)CC1)C(=O)O,250,–
CCCCS(=O)(=O)NC(CC(=O)O)CC(=O)N1CCC(CCCC2CCNCC2)CC1 (centres undefined),950,–
O=C(O)CCCCC(=O)N1CCC(CCCC2CCNCC2)CC1,6700,–
O=C(O)CCCC(=O)N1CCC(CCCC2CCNCC2)CC1,3000,–
CCCCS(=O)(=O)N[C@H](CCC(=O)N1CCC(CCCC2CCNCC2)CC1)C(=O)O,> 25000,–
O=C(O)CCC(=O)N1CCC(CCCC2CCNCC2)CC1,> 25000,–

# Stronger by IC50 [1], values ahead:
IC50 [1] [nM],IC50 [2] [nM],Structure (SMILES)
110,70,CCCCS(=O)(=O)N[C@@H](CCC(=O)N1CCC(CCCC2CCNCC2)CC1)C(=O)O
70,130,CCCCCCCCS(=O)(=O)N[C@@H](CCC(=O)N1CCC(CCCC2CCNCC2)CC1)C(=O)O
40,10,O=C(O)[C@H](CCC(=O)N1CCC(CCCC2CCNCC2)CC1)NS(=O)(=O)c1ccc2ccccc2c1
40,10,O=C(O)[C@H](CCC(=O)N1CCC(CCCC2CCNCC2)CC1)NS(=O)(=O)c1cccc2ccccc12
30,–,O=C(O)[C@H](CCC(=O)N1CCC(CCCC2CCNCC2)CC1)NS(=O)(=O)c1ccccc1
30,30,O=C(O)[C@H](CCC(=O)N1CCC(CCCC2CCNCC2)CC1)NS(=O)(=O)c1ccc(-c2ccccc2)cc1
20,20,O=C(O)[C@H](CCC(=O)N1CCC(CCCC2CCNCC2)CC1)NS(=O)(=O)Cc1ccccc1
10,20,CCCc1ccc(S(=O)(=O)N[C@@H](CCC(=O)N2CCC(CCCC3CCNCC3)CC2)C(=O)O)cc1
